# Measured values as given in patent publication US8524665B2, “Use of secretin in treatments of disorders associated with the amygdala” (The McLean Hospital Corporation, priority 2003, dated 2013).
# How the values were obtained:
# clinical = details: human, in vivo, iv, 0.4 ug/kg
# Protocol: Upon entering the scanner, an […] was started in an antecubital vein and subjects were randomly assigned to receive either placebo (saline) or RG1068 (synthetic human secretin). Drug was administered at 0.4 μg/kg via the […] over 1 min. A 3-way stop-clock device with a heparinized line was used to collect blood samples immediately preceding the infusion of RG1068 or placebo and at variable points post infusion for drug pharmacokinetic analysis. Vital signs were monitored for at least 20 minutes after infusion. Prior to the infusion, subjects completed three affective challenge paradigms which had been explained to them before entering the scanner. Subjects completed the same paradigms one hour following infusion with either placebo or RG1068 for pre/post comparison (FIG. 1).
# Blood samples were taken over the first 60 minutes post dosing, and samples from subjects receiving RG1068 were used to quantify secretin blood levels. […] Both the Cmax and the elimination rate are consistent with values observed after similar secretin infusions in adults (Christ et al., 1988). Whole brain T2 measures were obtained to verify that no global metabolic effect occurred with the administration of secretin.
# amygdala [1] = details: healthy subjects; cited from earlier work
# amygdala [2] = details: depressed patients, versus baseline evaluation; cited from earlier work
smiles,measurement,setting,value
"CC(C)C[C@H](NC(=O)CNC(=O)[C@H](CCC(N)=O)NC(=O)[C@H](CC(C)C)NC(=O)[C@H](CC(C)C)NC(=O)[C@H](CCCNC(=N)N)NC(=O)[C@H](CCC(N)=O)NC(=O)[C@H](CC(C)C)NC(=O)[C@H](CCCNC(=N)N)NC(=O)[C@H](C)NC(=O)CNC(=O)[C@H](CCC(=O)O)NC(=O)[C@H](CCCNC(=N)N)NC(=O)[C@H](CC(C)C)NC(=O)[C@H](CCCNC(=N)N)NC(=O)[C@H](CO)NC(=O)[C@H](CC(C)C)NC(=O)[C@H](CCC(=O)O)NC(=O)[C@H](CO)NC(=O)[C@@H](NC(=O)[C@H](Cc1ccccc1)NC(=O)[C@@H](NC(=O)CNC(=O)[C@H](CC(=O)O)NC(=O)[C@H](CO)NC(=O)[C@@H](N)Cc1c[nH]cn1)[C@@H](C)O)[C@@H](C)O)C(=O)N[C@H](C(N)=O)C(C)C [Secretin, secretin]",Cmax,clinical,5.1 ng/mL
same,half-life,clinical,3.7 min
C[C@H](N)Cc1ccccc1 [dextroamphetamine],amygdalar responsivity to facial affect,amygdala [1],increased amygdalar responsivity
COc1ccc(C(CN(C)C)C2(O)CCCCC2)cc1 (stereo not shown) [venlafaxine],amygdalar activation to positive stimuli after treatment,amygdala [2],significant increase in activation
